Measured values published in US20220315895A1, “METHODS OF MAKING OLIGOPOTENT AND UNIPOTENT PRECURSORS” (Transfusion Health, LLC, priority 2019, published 2022).

Test system: CD34+ cells from cord blood
Experiment: Expansion of cord blood CD34+ cells, seven-day culture (Example 35)
Type: cell-based, human
Conditions: normalized fold change days 1 to 7
Protocol: CD34+ cells from cord blood were purchased from STEMCELL Technologies. Primary human CD34+ cells were isolated from cord blood samples using positive immunomagnetic separation techniques. Cells were thawed and gradually brought to room temperature. Samples were washed, then placed in overnight culture in StemSpan with 100 ng/ml each of FLT3L, TPO, SCF, and TL-6. Eighteen to twenty-four hours later (day 1), cells were counted and immunophenotyped (flow cytometry on an Invitrogen Attune N×T cytometer).
Approximately 1000 live cells were plated into each well of 96-well plates; exact cell numbers dispensed per well were quantified with flow cytometry for later calculations.
Media for testing compounds of Formula I was prepared using Alpha MEM without phenol red, 10% (v/v) heat inactivated fetal bovine serum. Culture conditions also included an antibiotic solution that includes penicillin, streptomycin, and amphotericin B to avoid contamination. Additional media components and concentrations used for the compounds tested are described in Table 5.
All incubations for this experiment took place at 3% oxygen (controlled by nitrogen) and 5% CO2. Following seven days of culture, cells from wells were collected and phenotypes were analyzed (flow cytometry on an Invitrogen Attune N×T cytometer).
Table 6 below, summarizes the relative expansive effect of the screened compounds at the indicated concentration. The data in Table 6 is reported as the relative expansive effect. The relative expansive effect is a normalized value of the fold changes shown in each of the figures. It is calculated as shown below: […]

With `COC1c2ccccc2-c2ccc(NC(=O)C(C)(C)C)cc21` (centres unmarked) [Compound 1.025, N-(9-methoxy-9H-fluoren-2-yl)pivalamide] the “CD90 effect (relative expansive effect on CD34+/CD133+/CD90+ cells)” value (sample compound 8 μM) was “++++ (2.16 ≤ x < 2.52)” and the “CD133 effect (relative expansive effect on CD34+/CD133+ cells)” value (sample compound 8 μM) was “+++ (1.8 ≤ x < 2.16)”.

`CC(C)(C)C(=O)Nc1ccc2c(c1)C(C#N)c1ccccc1-2` (centres unmarked) [Compound 1.026, N-(9-cyano-9H-fluoren-2-yl)pivalamide] was tested, and the “CD90 effect (relative expansive effect on CD34+/CD133+/CD90+ cells)” value (sample compound 2 μM) was “++ (1.44 ≤ x < 1.8)” and the “CD133 effect (relative expansive effect on CD34+/CD133+ cells)” value (sample compound 2 μM) was “++ (1.44 ≤ x < 1.8)”.

For `CC(=O)Oc1ccc2c(c1)C(=O)c1cc(OC(C)=O)ccc1-2` [Compound 1.027, 9-oxo-9H-fluorene-2,7-diyl diacetate], the “CD90 effect (relative expansive effect on CD34+/CD133+/CD90+ cells)” value (sample compound 2 μM) was “++ (1.44 ≤ x < 1.8)” and the “CD133 effect (relative expansive effect on CD34+/CD133+ cells)” value (sample compound 2 μM) was “++ (1.44 ≤ x < 1.8)”.

`CC(C)(C)C(=O)Nc1ccc2c(c1)/C(=N\O)c1ccccc1-2` [Compound 1.028, N-(9-(hydroxyimino)-9H-fluoren-2-yl)pivalamide] was tested, and the “CD90 effect (relative expansive effect on CD34+/CD133+/CD90+ cells)” value (sample compound 2 μM) was “+++ (1.8 ≤ x < 2.16)” and the “CD133 effect (relative expansive effect on CD34+/CD133+ cells)” value (sample compound 2 μM) was “+++ (1.8 ≤ x < 2.16)”.

For `CC(=O)Nc1ccc2c(c1)C(O)c1ccccc1-2` (centres unmarked) [Compound 1.029, N-(9-hydroxy-9H-fluoren-2-yl)acetamide], the “CD90 effect (relative expansive effect on CD34+/CD133+/CD90+ cells)” value (sample compound 8 μM) was “++++ (2.16 ≤ x < 2.52)” and the “CD133 effect (relative expansive effect on CD34+/CD133+ cells)” value (sample compound 8 μM) was “++++ (2.16 ≤ x < 2.52)”.

For `CC(C)(C)C(=O)Oc1ccc2c(c1)C(O)c1ccccc1-2` (centres unmarked) [Compound 1.030, 9-hydroxy-9H-fluoren-2-yl pivalate], the “CD90 effect (relative expansive effect on CD34+/CD133+/CD90+ cells)” value (sample compound 10 μM) was “+++ (1.8 ≤ x < 2.16)” and the “CD133 effect (relative expansive effect on CD34+/CD133+ cells)” value (sample compound 10 μM) was “+++ (1.8 ≤ x < 2.16)”.

In the case of `O=C(Nc1ccc2c(c1)C(O)c1ccccc1-2)C1CCCCO1` (centres unmarked) [Compound 1.031, N-(9-hydroxy-9H-fluoren-2-yl)tetrahydro-2H-pyran-2-carboxamide], the “CD90 effect (relative expansive effect on CD34+/CD133+/CD90+ cells)” value (sample compound 10 μM) was “++ (1.44 ≤ x < 1.8)” and the “CD133 effect (relative expansive effect on CD34+/CD133+ cells)” value (sample compound 10 μM) was “+++ (1.8 ≤ x < 2.16)”.

`O=C(Nc1ccc2c(c1)C(O)c1ccccc1-2)c1ccc(O)cc1` (centres unmarked) [Compound 1.032, 4-hydroxy-N-(9-hydroxy-9H-fluoren-2-yl)benzamide] was tested, and the “CD90 effect (relative expansive effect on CD34+/CD133+/CD90+ cells)” value (sample compound 10 μM) was “++ (1.44 ≤ x < 1.8)” and the “CD133 effect (relative expansive effect on CD34+/CD133+ cells)” value (sample compound 10 μM) was “++ (1.44 ≤ x < 1.8)”.

`CN(C)C(=O)Nc1ccc2c(c1)C(O)c1ccccc1-2` (centres unmarked) [Compound 1.033, 3-(9-hydroxy-9H-fluoren-2-yl)-1,1-dimethylurea] was tested, and the “CD90 effect (relative expansive effect on CD34+/CD133+/CD90+ cells)” value (sample compound 10 μM) was “++ (1.44 ≤ x < 1.8)” and the “CD133 effect (relative expansive effect on CD34+/CD133+ cells)” value (sample compound 10 μM) was “+++ (1.8 ≤ x < 2.16)”.

For `O=C(Nc1ccc2c(c1)C(O)c1ccccc1-2)C(Cl)(Cl)Cl` (centres unmarked) [Compound 1.034, 2,2,2-trichloro-N-(9-hydroxy-9H-fluoren-2-yl)acetamide], the “CD90 effect (relative expansive effect on CD34+/CD133+/CD90+ cells)” value (sample compound 10 μM) was “+++++ (2.52 ≤ x)” and the “CD133 effect (relative expansive effect on CD34+/CD133+ cells)” value (sample compound 10 μM) was “+++++ (2.52 ≤ x)”.

For `Nc1ccc2c(c1)C(=O)c1ccccc1-2` [Compound 1.035], the “CD90 effect (relative expansive effect on CD34+/CD133+/CD90+ cells)” value (sample compound 10 μM) was “+++ (1.8 ≤ x < 2.16)” and the “CD133 effect (relative expansive effect on CD34+/CD133+ cells)” value (sample compound 10 μM) was “+++ (1.8 ≤ x < 2.16)”.

`O=C1c2ccccc2-c2ccc([N+](=O)[O-])cc21` [Compound 1.036] was tested, and the “CD90 effect (relative expansive effect on CD34+/CD133+/CD90+ cells)” value (sample compound 10 μM) was “+++ (1.8 ≤ x < 2.16)” and the “CD133 effect (relative expansive effect on CD34+/CD133+ cells)” value (sample compound 10 μM) was “++ (1.44 ≤ x < 1.8)”.

With `O=C1c2ccccc2-c2ccccc21` [Compound 1.037] the “CD90 effect (relative expansive effect on CD34+/CD133+/CD90+ cells)” value (sample compound 10 μM) was “++ (1.44 ≤ x < 1.8)” and the “CD133 effect (relative expansive effect on CD34+/CD133+ cells)” value (sample compound 10 μM) was “+ (x < 1.44)”.
